Structures can show the parent of a compound that is named as a salt.
Legend:
[1] = target: T1, human α1d-adrenoceptor (Homo sapiens, UniProt P25100); test: [3H]Prazosin binding, cloned human α1d-adrenoceptor in CHO cell membranes; settings: read-out: Affinity (Ki) α1d, human cloned receptors
T1 construct: expressed in transfected cells
T1 sequence (P25100 1-572): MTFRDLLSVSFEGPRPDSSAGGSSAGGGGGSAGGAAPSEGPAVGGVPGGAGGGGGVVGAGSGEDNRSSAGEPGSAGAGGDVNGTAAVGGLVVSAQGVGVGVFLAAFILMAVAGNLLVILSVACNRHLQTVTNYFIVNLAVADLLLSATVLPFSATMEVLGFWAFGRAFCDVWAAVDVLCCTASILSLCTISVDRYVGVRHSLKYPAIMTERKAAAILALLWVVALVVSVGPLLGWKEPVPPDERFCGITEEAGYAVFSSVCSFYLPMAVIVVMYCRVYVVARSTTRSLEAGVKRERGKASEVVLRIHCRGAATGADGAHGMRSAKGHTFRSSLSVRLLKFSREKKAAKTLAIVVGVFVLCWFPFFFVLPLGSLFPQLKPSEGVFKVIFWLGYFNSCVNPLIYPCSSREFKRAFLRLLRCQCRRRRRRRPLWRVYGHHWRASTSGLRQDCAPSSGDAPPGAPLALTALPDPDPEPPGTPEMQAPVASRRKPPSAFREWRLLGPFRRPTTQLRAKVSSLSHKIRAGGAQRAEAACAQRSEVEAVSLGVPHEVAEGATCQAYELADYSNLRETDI
Method: (§1) Binding to cloned human α1-adrenoceptor subtypes was performed in membranes from CHO cells (Chinese hamster ovary cells) transfected by electroporation with DNA expressing the gene encoding each α1-adrenoceptor subtype. […] The incubation was stopped by addition of ice-cold Tris buffer and rapid filtration through 0.2% polyethyleneimine-pretreated Whatman GF/B or Schleicher & Schuell GF52 filters.
(§2) Data are expressed as mean Ki. All patents and other references cited herein are incorporated by reference in their entirety.

[2] = target: T2, human α1b-adrenoceptor (Homo sapiens, UniProt P35368); test: [3H]Prazosin binding, cloned human α1b-adrenoceptor in CHO cell membranes
T2 construct: expressed in transfected cells
T2 sequence (P35368 1-520): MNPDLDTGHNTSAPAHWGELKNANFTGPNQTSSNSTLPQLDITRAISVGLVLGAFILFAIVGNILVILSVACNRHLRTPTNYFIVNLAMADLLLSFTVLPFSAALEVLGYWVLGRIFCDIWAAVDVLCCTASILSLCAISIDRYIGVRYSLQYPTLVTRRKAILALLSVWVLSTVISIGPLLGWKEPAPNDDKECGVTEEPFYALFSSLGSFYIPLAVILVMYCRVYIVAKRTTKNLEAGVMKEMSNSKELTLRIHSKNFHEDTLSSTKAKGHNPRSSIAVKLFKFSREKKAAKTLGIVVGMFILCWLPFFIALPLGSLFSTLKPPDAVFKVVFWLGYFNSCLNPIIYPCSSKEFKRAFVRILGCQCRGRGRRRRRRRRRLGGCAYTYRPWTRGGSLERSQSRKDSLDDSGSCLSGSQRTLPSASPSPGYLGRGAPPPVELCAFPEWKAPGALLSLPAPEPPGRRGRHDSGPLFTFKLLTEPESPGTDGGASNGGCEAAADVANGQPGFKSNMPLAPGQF
Method: as §1, §2

[3] = target: T3, human α1a-adrenoceptor (Homo sapiens, UniProt P35348); test: biochemical
T3 sequence (P35348 1-466): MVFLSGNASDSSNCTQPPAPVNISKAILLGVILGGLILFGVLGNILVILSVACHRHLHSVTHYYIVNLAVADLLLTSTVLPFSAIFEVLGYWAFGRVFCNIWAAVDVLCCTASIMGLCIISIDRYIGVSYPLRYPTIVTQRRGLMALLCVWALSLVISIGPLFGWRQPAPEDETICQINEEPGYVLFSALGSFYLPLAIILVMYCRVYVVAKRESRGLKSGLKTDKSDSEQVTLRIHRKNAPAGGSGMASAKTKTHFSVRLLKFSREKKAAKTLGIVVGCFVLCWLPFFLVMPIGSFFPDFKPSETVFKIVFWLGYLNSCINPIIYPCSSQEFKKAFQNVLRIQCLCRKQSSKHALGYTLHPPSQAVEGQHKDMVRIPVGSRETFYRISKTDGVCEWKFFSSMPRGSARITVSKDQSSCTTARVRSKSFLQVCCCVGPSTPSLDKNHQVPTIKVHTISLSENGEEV

[4] = system: anaesthetised dogs; test: Intracavernous and blood pressure recording in dogs
Method: Male beagle dogs were anaesthetised with pentobarbital sodium (i.v. Nembutal, 35 mg/kg for induction and 4 mg/kg/h for maintenance) and intubated with an endotracheal cuffed tube to facilitate free ventilation. A collateral of the left femoral vein was cannulated with a PE catheter for infusion of the anaesthetic. Systemic BP was monitored via a Mikro-tip 6F (Millar Instruments) pressure transducer introduced into the aortic arch through the right common carotid artery. ICP was measured by means of a 20-gauge needle placed into the left or right corpus cavernosum and the same needle was used for intracavernous injection of the drugs. The needle was attached to a catheter filled with heparinized saline (25 IU/mL). […] The compounds to be tested were injected intracavernously in a volume of 0.5 ml and, after each injection, the needle was flushed with 0.5 ml of saline. The vehicles for compound dissolution were tested before the first dose of each drug. The compounds were administered in a cumulative way, with a 30-minute interval between doses. ICP (mmHg) was measured at the peak effect after the administration of the compounds. The duration of tumescence (DT, min) was measured from the beginning of the rise of ICP over its basal value up to the return to baseline. The systolic blood pressure and diastolic blood pressure (mmHg) were measured at the peak effect after the administration of compounds, in order to evaluate the effects of the compounds on BP independently from the effects on ICP. Moreover, the systolic blood pressure was measured at the time of maximal ICP value after intracavernous injection, to evaluate the ICP/BP ratios. […] The data were reported as mean ±s.e. of the mean, or percent variation (±s.e.) of the basal values.

[5] = target: T4, hamster α1b-adrenoceptor (Mesocricetus auratus, UniProt P18841); test: [3H]Prazosin binding, hamster α1b-adrenoceptor in COS-7 cell membranes; settings: COS-7 membranes, read-out: Affinity (Ki) α1b, animal cloned receptors
T4 construct: expressed in transfected cells; host or cells: COS-7 cells (transient), membranes
T4 sequence (P18841 1-515): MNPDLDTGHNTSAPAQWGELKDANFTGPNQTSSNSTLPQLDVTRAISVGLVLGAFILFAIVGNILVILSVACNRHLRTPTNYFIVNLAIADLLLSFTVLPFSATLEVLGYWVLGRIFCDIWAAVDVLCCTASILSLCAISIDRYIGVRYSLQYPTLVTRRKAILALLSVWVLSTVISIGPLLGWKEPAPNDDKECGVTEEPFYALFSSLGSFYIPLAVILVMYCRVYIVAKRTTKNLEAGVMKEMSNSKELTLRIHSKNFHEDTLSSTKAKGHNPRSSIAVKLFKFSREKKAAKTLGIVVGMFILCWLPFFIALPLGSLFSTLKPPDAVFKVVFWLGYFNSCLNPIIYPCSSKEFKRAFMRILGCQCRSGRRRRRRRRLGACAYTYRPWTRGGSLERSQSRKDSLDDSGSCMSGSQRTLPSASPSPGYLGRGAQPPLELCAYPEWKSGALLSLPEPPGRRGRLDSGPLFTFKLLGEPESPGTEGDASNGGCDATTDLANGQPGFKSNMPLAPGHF
Method: The incubation was stopped by addition of ice-cold Tris buffer and rapid filtration through 0.2% polyethyleneimine pretreated Whatman GF/B or Schleicher & Schuell GF52 filters.
as §2

`COc1cc2nc(N3CCN(C(=O)c4ccco4)[C@@H]4CCCC[C@@H]43)nc(N)c2cc1OC` [Compound B, 4-Amino-6,7-dimethoxy-2-[(4aR,8aS)-4-(2-furoyl)-cis-octahydro-1-quinoxalinyl]-quinazoline hydrochloride] was tested, and the Ki [1] was 2.63 nM, the Ki [2] was 0.17 nM and the Ki [3] was 9.43 nM. The DBP ([4]; 3 μg/kg intracavernous) was 110.7 ± 5.5 mmHg, the “DT (duration of tumescence)” value ([4]; 3 μg/kg intracavernous) was 2.5 ± 0.9 min and the ICP ([4]; 3 μg/kg intracavernous) was 36.7 ± 2.2 mmHg. The SBP ([4]; 3 μg/kg intracavernous) was 151.7 ± 7.3 mmHg, the “SBPICP (SBP at the time of maximal ICP value)” value (shortened to “SBPICP”) ([4]; 3 μg/kg intracavernous) was 153.3 ± 7.0 mmHg and the “increase of ICP in comparison with basal ICP values” ([4]; 3 μg/kg intracavernous) was 13.7 mmHg. The DBP ([4]; 30 μg/kg intracavernous) was 107.3 ± 4.2 mmHg, the “DT (duration of tumescence)” value ([4]; 30 μg/kg intracavernous) was 4.3 ± 2.0 min and the ICP ([4]; 30 μg/kg intracavernous) was 49.3 ± 14.2 mmHg. The SBP ([4]; 30 μg/kg intracavernous) was 150.0 ± 5.9 mmHg, the “SBPICP” value ([4]; 30 μg/kg intracavernous) was 151.0 ± 5.7 mmHg and the DBP ([4]; 100 μg/kg intracavernous) was 104.3 ± 4.2 mmHg. The “DT (duration of tumescence)” value ([4]; 100 μg/kg intracavernous) was 4.4 ± 1.6 min, the ICP ([4]; 100 μg/kg intracavernous) was 52.7 ± 13.0 mmHg and the SBP ([4]; 100 μg/kg intracavernous) was 146.0 ± 4.8 mmHg. For the same compound, the “SBPICP” value ([4]; 100 μg/kg intracavernous) was 147.3 ± 5.0 mmHg, the DBP ([4]; 300 μg/kg intracavernous) was 98.0 ± 6.9 mmHg and the “DT (duration of tumescence)” value ([4]; 300 μg/kg intracavernous) was 3.5 ± 1.1 min. The ICP ([4]; 300 μg/kg intracavernous) was 57.3 ± 11.4 mmHg, the SBP ([4]; 300 μg/kg intracavernous) was 139.0 ± 6.6 mmHg and the “SBPICP” value ([4]; 300 μg/kg intracavernous) was 147.3 ± 5.7 mmHg. The “increase of ICP in comparison with basal ICP values” ([4]; 1000 μg/kg (1000 μg given for prazosin, phentolamine) intracavernous) was 73.3 mmHg, the DBP ([4]; 1000 μg/kg intracavernous) was 81.0 ± 4.3 mmHg and the ICP ([4]; 1000 μg/kg intracavernous) was 93.3 ± 6.2 mmHg. The SBP ([4]; 1000 μg/kg intracavernous) was 121.7 ± 4.9 mmHg, the “SBPICP” value ([4]; 1000 μg/kg intracavernous) was 135.7 ± 6.8 mmHg and the “duration of action compared with reference compounds” value ([4]; Compound B at the highest dose tested) was “higher than that of the reference compounds tested”. For the same compound, the “hypotension on diastolic blood pressure (change)” value ([4]; highest dose 1000 μg/kg) was −31 mmHg, the “effect on ICP (in words)” value ([4]; intracavernous injection) was “increased ICP in a dose-dependent way” and the Ki [5] was 0.68 nM.

— patent publication US6953800B2, “Use of selective antagonists of the α1B-adrenergic receptor for improvement of sexual dysfunction” (Recordati S.A. Chemical, priority 1999, dated 2005)
